Entries after “also recorded” stand apart in the source; their conditions may differ. Square brackets hold non-standard residues; d marks the D form. Peptide text beside a SMILES is read from it. Met(O) = CS(=O)CC[C@H](N)C(=O)O
What was measured:
APEH = APEH partially purified from human blood cells (0.7 μg, 24.000 total units) in Tris-HCl 25 mM pH 7.5; details: 37 °C, up to 48 h
[1] = target: T1, APEH partially purified from human blood cells (Homo sapiens, UniProt P13798); assay: Treatment of peptides with APEH and assessment of proteolysis by LC-MS; type: biochemical; details: 10 nmol/200 μL peptide, APEH 0.7 μg, 37 °C, 48 h; for % fragment cleaved on carboxy side of H59 (Ac-...HTH, lacking LVQQA), percentage of the initial substrate / % fragment cleaved on carboxy side of Q62 (Ac-...HTHLVQ, lacking QA), percentage of the initial substrate / % intact peptide left after APEH exposure (percentage of the initial substrate): Tris-HCl 25 mM pH 7.5, EIC peak areas, average of three independent experiments; for % Degradation (overall % of peptide degraded upon exposure to APEH): sum of fragment % of Table 2(a), Tris-HCl 25 mM pH 7.5, N.D. = not degraded
T1 construct: incubated with APEH partially purified from human blood cells; from tissue; host or cells: human red blood cells (erythrocyte hemolysate from donors' blood)
T1 sequence (P13798 1-732): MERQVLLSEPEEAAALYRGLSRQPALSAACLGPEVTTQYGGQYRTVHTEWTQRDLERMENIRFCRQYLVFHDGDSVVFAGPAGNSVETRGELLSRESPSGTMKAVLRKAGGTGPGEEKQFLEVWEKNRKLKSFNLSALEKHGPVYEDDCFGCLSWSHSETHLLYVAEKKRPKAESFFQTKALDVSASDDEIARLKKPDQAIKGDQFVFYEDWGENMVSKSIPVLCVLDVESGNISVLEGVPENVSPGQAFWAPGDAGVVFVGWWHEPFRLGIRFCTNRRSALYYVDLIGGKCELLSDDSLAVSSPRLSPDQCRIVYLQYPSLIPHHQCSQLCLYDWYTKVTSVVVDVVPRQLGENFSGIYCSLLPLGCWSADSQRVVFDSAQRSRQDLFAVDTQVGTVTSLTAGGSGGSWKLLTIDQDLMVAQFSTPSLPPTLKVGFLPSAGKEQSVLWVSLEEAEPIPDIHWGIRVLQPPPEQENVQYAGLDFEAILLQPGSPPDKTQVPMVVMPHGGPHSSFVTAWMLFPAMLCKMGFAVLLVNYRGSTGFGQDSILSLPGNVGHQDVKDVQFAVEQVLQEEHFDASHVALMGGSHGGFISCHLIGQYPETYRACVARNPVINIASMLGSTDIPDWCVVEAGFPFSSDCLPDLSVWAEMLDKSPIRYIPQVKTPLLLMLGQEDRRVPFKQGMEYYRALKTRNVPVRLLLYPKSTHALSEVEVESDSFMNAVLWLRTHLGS
Experimental: In order to identify the potential cleavage sites of APEH on the oxidized GDF11[48-64], the peptide was incubated alone or in combination with the enzyme and the corresponding reaction mixtures were analyzed by LC-MS. The same experiments were performed using the non-oxidized analogues as control.
Blood samples were taken from donors using syringes with heparin. In accordance with ethical principles stated in the Declaration of Helsinki, as well as with approved national and international guidelines for human research, a written informed consent was obtained from participants. The erythrocytes were separated from the plasma by centrifugation at 1800× g for 5 min at 4 °C and washed twice with an isotonic solution (10 mM Tris-HCl pH 7.6, […]; 4 °C). Lysis of erythrocytes was carried out by incubation in hypotonic solution (25 mM Tris/HCl, pH 7.5) for 30 min on ice. The hemolysate was obtained by centrifugation of the lysate at 9200× g for 40 min at 4 °C. Then, the ‘soluble fraction’ was loaded onto a DEAE Sepharose Fast Flow column, connected to an AKTA FPLC system (Amersham Biosciences, Amersham, UK), previously equilibrated in 25 mM Tris-HCl (pH 7.5) (buffer A). The bound proteins were eluted using a linear ionic strength gradient (0–100%) of 1 M NaCl in buffer A at a flow rate of 1 mL min^−1. The active fractions were collected, pooled, dialyzed against 25 mM Tris-HCl pH 7.5 and loaded on a Superdex 200 PC 3.2/30 column (Pharmacia Biotech, Stockholm, Sweden) connected to a SMART System (Pharmacia Biotech, Stockholm, Sweden). The bound proteins were eluted with 25 mM Tris-HCl buffer, pH 7.5, containing 50 mM NaCl, at a flow rate of 0.1 mL min^−1. The active fractions were collected, pooled, dialyzed against 25 mM Tris-HCl pH 7.5 and stored in the same buffer supplemented with 5% glycerol. Enzyme purification was monitored using Ac-Met-7-amino-4-methylcoumarin (AMC) as substrate. Active fractions were analyzed by SDS-PAGE (12%) in order to evaluate the enrichment of the protein during the various purification steps. The protein was also characterized by Western Blot analysis. Aliquots of protein samples were subjected to SDS-PAGE (8%), and then electroblotted onto PVDF membranes (ImmobilonTM, Millipore, Milan, Italy). Membranes were next incubated with the specific primary antibody (sc-102311, 1:5000, Santa Cruz Biotechnology, USA) and then with the horseradish peroxidase-conjugated secondary antibody for 1 h at 37 °C (1:5000, Santa Cruz Biotechnology, Dallas, TX, USA). The immune complexes formed were visualized by enhanced chemiluminescence and autoradiography, according to the manufacturer’s protocol (Amersham Biosciences, Amersham, UK). Molecular mass of the native enzyme was established by gel filtration chromatography on a Superdex 200 PC 3.2/30 column (Pharmacia Biotech, Stockholm, Sweden), connected to a SMART system (Pharmacia Biotech, Stockholm, Sweden), and calibrated with BioRad gel filtration standards (BioRad, Milano, Italy; code 151-1901). The enzyme inhibition assay was performed on APEH preparation using the selective and potent inhibitor AA74-1 (SML0358, Sigma-Aldrich, Milano, Italy). Mixtures containing appropriate amount of inhibitor (62 µM) and APEH sample (0.7 μg) were pre-incubated for 30 min at 37 °C; then the substrate Ac-Met-7-amino-4-methylcoumarin (AMC) was added to the assay mixture and the enzymatic activity was followed as previously described. Control samples were prepared by pre-incubating the same amounts of APEH without the inhibitor and then assayed following the same procedure.
In total, 10 nmol/200 μL of each molecule was incubated with APEH partially purified from human blood cells (0.7 μg, 24.000 total units) at 37 °C for 48 h in Tris-HCl 25 mM pH 7.5. […]

Molecule	% fragment cleaved on carboxy side of H59 (Ac-...HTH, lacking LVQQA), percentage of the initial substrate [1]	% fragment cleaved on carboxy side of Q62 (Ac-...HTHLVQ, lacking QA), percentage of the initial substrate [1]	% intact peptide left after APEH exposure (percentage of the initial substrate) [1]	% Degradation (overall % of peptide degraded upon exposure to APEH) [1]	other results
Ac-EAM(ox)FM(ox)QKYPHTHLVQQA-NH2	–	–	–	–	cleaved bond (APEH): Q62-Q; also recorded: H59-L
Ac-EYAFAQKYPHTHLVQQA-NH2	–	–	–	–	not cleaved (APEH): 100% intact; N.D. (not degraded) after 48 h
CC(=O)N[C@@H](CCC(=O)O)C(=O)N[C@@H](C)C(=O)N[C@@H](CC[S+](C)[O-])C(=O)N[C@@H](Cc1ccccc1)C(=O)N[C@@H](CC[S+](C)[O-])C(=O)N[C@@H](CCC(N)=O)C(=O)N[C@@H](CCCCN)C(=O)N[C@@H](Cc1ccc(O)cc1)C(=O)N1CCC[C@H]1C(=O)N[C@@H](Cc1c[nH]cn1)C(=O)N[C@H](C(=O)N[C@@H](Cc1c[nH]cn1)C(=O)N[C@@H](CC(C)C)C(=O)N[C@H](C(=O)N[C@@H](CCC(N)=O)C(=O)N[C@@H](CCC(N)=O)C(=O)N[C@@H](C)C(N)=O)C(C)C)[C@@H](C)O (some centres unmarked) [GDF11[48-64] Y49A ox] (Ac-EA[Met(O)]F[Met(O)]QKYPHTHLVQQA-NH2)	11.5%	10.2%	78.3%	21.7%	% fragment cleaved on carboxy side of H59 (Ac-...HTH, lacking LVQQA), percentage of the initial substrate ([1]; listed as Y49A): about 11%
CC(=O)N[C@@H](CCC(=O)O)C(=O)N[C@@H](Cc1ccc(O)cc1)C(=O)N[C@@H](CC[S+](C)[O-])C(=O)N[C@@H](Cc1ccccc1)C(=O)N[C@@H](CC[S+](C)[O-])C(=O)N[C@@H](CCC(N)=O)C(=O)N[C@@H](CCC(=O)O)C(=O)N[C@@H](Cc1ccc(O)cc1)C(=O)N1CCC[C@H]1C(=O)N[C@@H](Cc1c[nH]cn1)C(=O)N[C@H](C(=O)N[C@@H](Cc1c[nH]cn1)C(=O)N[C@@H](CC(C)C)C(=O)N[C@H](C(=O)N[C@@H](CCC(N)=O)C(=O)N[C@@H](CCC(N)=O)C(=O)N[C@@H](C)C(N)=O)C(C)C)[C@@H](C)O (some centres unmarked) [GDF11[48-64] K54E ox] (Ac-EY[Met(O)]F[Met(O)]QEYPHTHLVQQA-NH2)	18.7%	did not undergo cleavage	81.3%	18.7%	–
CC(=O)N[C@@H](CCC(=O)O)C(=O)N[C@@H](Cc1ccc(O)cc1)C(=O)N[C@@H](CC[S+](C)[O-])C(=O)N[C@@H](C)C(=O)N[C@@H](CC[S+](C)[O-])C(=O)N[C@@H](CCC(N)=O)C(=O)N[C@@H](CCCCN)C(=O)N[C@@H](Cc1ccc(O)cc1)C(=O)N1CCC[C@H]1C(=O)N[C@@H](Cc1c[nH]cn1)C(=O)N[C@H](C(=O)N[C@@H](Cc1c[nH]cn1)C(=O)N[C@@H](CC(C)C)C(=O)N[C@H](C(=O)N[C@@H](CCC(N)=O)C(=O)N[C@@H](CCC(N)=O)C(=O)N[C@@H](C)C(N)=O)C(C)C)[C@@H](C)O (some centres unmarked) [GDF11[48-64] F51A ox] (Ac-EY[Met(O)]A[Met(O)]QKYPHTHLVQQA-NH2)	11.7%	3.3%	85.0%	15.0%	–
Ac-EYMFMQKYPHTHLVQQA-NH2	–	–	–	–	not cleaved (APEH): No cleavage was observed; N.D. (not degraded) after 48 h
Ac-EYM(ox)AAQKYPHTHLVQQA-NH2	–	–	–	–	cleaved bond (APEH): Q62-Q; also recorded: H59-L, major
Ac-EYM(ox)AM(ox)QKYPHTHLVQQA-NH2	–	–	–	–	cleaved bond (APEH): Q62-Q; also recorded: H59-L, major
Ac-EYAFAQKYPHTHLVQQA-NH2 [GDF11[48-65] M50M52AA, control peptide where the two methionines were replaced with alanine residues]	–	–	100%	–	–
CC(=O)N[C@@H](CCC(=O)O)C(=O)N[C@@H](Cc1ccc(O)cc1)C(=O)N[C@@H](C)C(=O)N[C@@H](C)C(=O)N[C@@H](CC[S+](C)[O-])C(=O)N[C@@H](CCC(N)=O)C(=O)N[C@@H](CCCCN)C(=O)N[C@@H](Cc1ccc(O)cc1)C(=O)N1CCC[C@H]1C(=O)N[C@@H](Cc1c[nH]cn1)C(=O)N[C@H](C(=O)N[C@@H](Cc1c[nH]cn1)C(=O)N[C@@H](CC(C)C)C(=O)N[C@H](C(=O)N[C@@H](CCC(N)=O)C(=O)N[C@@H](CCC(N)=O)C(=O)N[C@@H](C)C(N)=O)C(C)C)[C@@H](C)O (some centres unmarked) [GDF11[48-64] M50F51AA ox] (Ac-EYAA[Met(O)]QKYPHTHLVQQA-NH2)	11.3%	2.0%	86.7%	about 13%	% fragment cleaved on carboxy side of H59 (Ac-...HTH, lacking LVQQA), percentage of the initial substrate ([1]; listed as M50F51AA): about 11%; % Degradation (overall % of peptide degraded upon exposure to APEH) ([1]; listed as GDF11[48-64]ox M50F51AA): 13.3%
CC(=O)N[C@@H](CCC(=O)O)C(=O)N[C@@H](Cc1ccc(O)cc1)C(=O)N[C@@H](CC[S+](C)[O-])C(=O)N[C@@H](C)C(=O)N[C@@H](C)C(=O)N[C@@H](CCC(N)=O)C(=O)N[C@@H](CCCCN)C(=O)N[C@@H](Cc1ccc(O)cc1)C(=O)N1CCC[C@H]1C(=O)N[C@@H](Cc1c[nH]cn1)C(=O)N[C@H](C(=O)N[C@@H](Cc1c[nH]cn1)C(=O)N[C@@H](CC(C)C)C(=O)N[C@H](C(=O)N[C@@H](CCC(N)=O)C(=O)N[C@@H](CCC(N)=O)C(=O)N[C@@H](C)C(N)=O)C(C)C)[C@@H](C)O (some centres unmarked) [GDF11[48-64] F51M52AA ox] (Ac-EY[Met(O)]AAQKYPHTHLVQQA-NH2)	16.5%	0.3%	83.2%	16.8%	–
